Test results published in US5451605A, “1,2-epoxycyclohexanyl and bicyclic aromatic substituted ethyne compounds having retinoid-like biological activity” (Allergan, Inc., priority 1993, dated 1995).

Key:
[1] = test system: ornithine decarboxylase (ODC); assay: inhibition of TPA induction of ornithine decarboxylase (ODC); format: in vivo
From the text: The retinoid-like activity of these compounds is confirmed through the classic measure of retinoic acid activity involving the effects of retinoic acid on ornithine decarboxylase. The original work on the correlation between retinoic acid and decrease in cell proliferation was done by Verma & Boutwell, Cancer Research, 1977, 37,2196-2201. That reference discloses that ornithine decarboxylase (ODC) activity increased precedent to polyamine biosynthesis. It has been established elsewhere that increases in polyamine synthesis can be correlated or associated with cellular proliferation. Thus, if ODC activity could be inhibited, cell hyperproliferation could be modulated. Although all causes for ODC activity increases are unknown, it is known that 12-0-tetradecanoylphorbol-13-acetate (TPA) induces ODC activity.

[2] = test system: ornithine decarboxylase (ODC); conditions: general statement, TPA-induced ODC; cited from earlier work

Compound | IC80 [1] | inhibition of TPA induction of ODC activity [2]
CC1(C)CCCC2(C)OC12C#Cc1ccc2cc(C(=O)O)ccc2c1 (racemic) [Compound 1, 6-[2-(1,2-epoxy-2,6,6-trimethyl-cyclohexan-1-yl)-ethynyl]-2-naphthoic acid] | 30.5 nM | –
CC1=C(/C=C/C(C)=C/C=C/C(C)=C/C(=O)O)C(C)(C)CCC1 [Retinoic acid] | – | inhibits this induction of ODC activity by TPA
